Measurements from paper PMC8874853 (Molecules, 2022).
Where two headings read alike, the source gives them in different places.

How the values were obtained:
BSA Site I / Site II [1] = target: T1, BSA Site I / Site II (Bos taurus, UniProt P02769); assay: Site marker studies with phenylbutazone (Site I) and ibuprofen (Site II); assay type: binding, bovine
T1 construct: purchased Sigma-Aldrich (St. Louis, MO, USA)

serum proteins [2] = conditions: humans; cited from earlier work
serum proteins [3] = conditions: mice; cited from earlier work
serum proteins [4] = conditions: rats; cited from earlier work
[5] = target: bovine serum albumin (BSA) (Bos taurus, UniProt P02769); assay: Fluorescence quenching of BSA by ligand (binary and ternary systems; Stern Volmer, double log and van't Hoff analysis); assay type: binding
Chain of bovine serum albumin (BSA) (P02769 25-607): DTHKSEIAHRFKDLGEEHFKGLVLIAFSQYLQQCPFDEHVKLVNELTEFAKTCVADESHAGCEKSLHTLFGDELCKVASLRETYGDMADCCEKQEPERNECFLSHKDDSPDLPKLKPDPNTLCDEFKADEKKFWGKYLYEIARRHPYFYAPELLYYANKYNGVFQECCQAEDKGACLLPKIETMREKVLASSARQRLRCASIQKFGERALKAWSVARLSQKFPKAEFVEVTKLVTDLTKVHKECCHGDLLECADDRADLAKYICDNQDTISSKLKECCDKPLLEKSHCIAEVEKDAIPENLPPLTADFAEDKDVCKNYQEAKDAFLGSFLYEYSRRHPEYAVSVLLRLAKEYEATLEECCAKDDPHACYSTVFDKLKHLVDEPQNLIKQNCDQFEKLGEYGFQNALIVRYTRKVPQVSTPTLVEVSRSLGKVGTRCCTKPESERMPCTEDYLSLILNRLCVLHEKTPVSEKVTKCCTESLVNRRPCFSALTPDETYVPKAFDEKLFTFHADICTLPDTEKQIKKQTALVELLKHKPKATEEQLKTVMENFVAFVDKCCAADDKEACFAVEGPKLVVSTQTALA
Source text: The spectrofluorometer FP-8200 (JASCO, Hachioji, Tokyo, Japan) was used to measure the fluorescence spectra. […] The inner filter effects were corrected for the reabsorption of emitted light using the equation [35]: Fcor=Fobs×e^(Aex+Aem)/2
Fcor and Fobs are the corrected and observed fluorescence in the above equation, respectively, and Aex and Aem are excitation and emission wavelengths absorbance values, respectively.
The fluorescence spectra for the protein BSA for the binary and the ternary system were recorded at 280 nm (excitation wavelength) and an emission wavelength of 300–500 nm (Figure 1a–c). […] (1) kq=Ksv/τ0 where F0 is BSA’s fluorescence intensity, and F is BSA’s fluorescence intensity in the presence of quencher. Stern Volmer constant is given as Ksv, and (Q) is quencher concentration. The kq biomolecular quenching constant and τ0 the lifetime of the fluorophore in the absence of quencher and is valued at 10^−8 s for biopolymers.
The binding constants and binding stoichiometry are were determined using a double logarithmic regression plot derived from the equation: log(F0−F)/F=log Kb+n log[Q] .

BSA Site I / Site II [6] = target: T1, BSA Site I / Site II; parameters: method as in PMID 28513070, PMID 34946608; conditions: cited from earlier work

T1 sequence (P02769 25-607): as above

SMILES	influence of phenylbutazone on quenching behavior and binding constant of BSA-ERL (BSA Site I / Site II [1]; Site I marker phenylbutazone)	binding constants of BSA-ERL in the presence and absence of ibuprofen (BSA Site I / Site II [1]; Site II marker ibuprofen)	binding site on BSA (BSA Site I / Site II [1]; site markers phenylbutazone and ibuprofen)	binding to serum proteins (serum proteins [2]) [%]	binding to serum proteins (serum proteins [3]) [%]	binding to serum proteins (serum proteins [4]) [%]	bimolecular quenching constant kq ([5]; binary system, 298 K, kq = Ksv/τ0, τ0 10^−8 s)	Stern Volmer constant Ksv ± SD ([5]; binary system, BSA 1.5 μM, 298 K)	further reduction of fluorescence intensity of the BSA-ERL system by presence of QUR ([5]; difference ternary vs binary system) [%]	binding site on BSA (BSA Site I / Site II [6])
C#Cc1cccc(Nc2ncnc3cc(OCCOC)c(OCCOC)cc23)c1 [ERL, Erlotinib]	strongly influenced	similar	Site I	92	95	92				
O=c1c(O)c(-c2ccc(O)c(O)c2)oc2cc(O)cc(O)c12 [QUR, Quercetin]							46.07 × 10^12 M^−1S^−1	460,702 ± 1875 M^−1	26	Site I
